≈ marks a conversion by molar mass, not a printed value. Read-outs that look alike come from different tables or passages of the source.
Experiments:
[1] = target: T1, PBP3 from Escherichia coli (K-12) (Escherichia coli, UniProt P0AD68); experiment: Bocillin-FL fluorescence polarization competition binding, E. coli PBP3
T1 construct: made in house
Outline: (§1)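 Purified PBPs pre-incubated with inhibitor (E. coli PBP3 1.5 μM, 30 min; P. aeruginosa PBP3 0.75 μM, A. baumannii PBP1a 1 μM and PBP3 0.2 μM, 15 min), then Bocillin-FL 0.1 μM (0.05 μM for PBP1a) added; FP read up to 60 min. EC50 = concentration halving bound Bocillin-FL.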

[2] = target: T2, PBP3 from Pseudomonas aeruginosa (PAO1) (Pseudomonas aeruginosa, UniProt G3XD46); experiment: Bocillin-FL fluorescence polarization competition binding, P. aeruginosa PBP3; conditions: Binding affinity to P. aeruginosa PBP3; fluorescence polarization competition binding assay using Bocillin-FL; read-out: P. aeruginosa PBP3 Potency
T2 construct: made in house
Outline: as §1

P. aeruginosa ATCC 27853 = experiment: microbe, parasite or virus in culture; format: cell-based; conditions: Pseudomonas aeruginosa, ATCC27853, read-out: Minimum inhibitory concentration, P. aeruginosa ATCC 27853
A. baumannii ATCC 17978 = experiment: microbe, parasite or virus in culture; format: cell-based; conditions: Acinetobacter baumannii, ATCC17978, read-out: MIC, A. baumannii ATCC 17978
P. aeruginosa CDC-0054 = experiment: microbe, parasite or virus in culture; format: cell-based; conditions: Pseudomonas aeruginosa, CDC0054, read-out: Minimum inhibitory concentration, P. aeruginosa CDC-0054
P. aeruginosa CDC-0095 = experiment: microbe, parasite or virus in culture; format: cell-based; conditions: Pseudomonas aeruginosa, CDC0095, read-out: Minimum inhibitory concentration, P. aeruginosa CDC-0095
A. baumannii CDC-0033 = experiment: microbe, parasite or virus in culture; format: cell-based; conditions: Acinetobacter baumannii, CDC0033, read-out: MIC, A. baumannii CDC-0033
A. baumannii CDC-0036 = experiment: microbe, parasite or virus in culture; format: cell-based; conditions: Acinetobacter baumannii, CDC0036, read-out: MIC, A. baumannii CDC-0036
[3] = tested on: B. humptydooensis ATCC BAA-2767; experiment: microbe, parasite or virus in culture; format: cell-based; conditions: Burkholderia humptydooensis, ATCCBAA2767, read-out: Minimum inhibitory concentration (MIC), B. humptydooensis ATCC BAA-2767
P. aeruginosa CDC-0110 = experiment: microbe, parasite or virus in culture; format: cell-based; conditions: Pseudomonas aeruginosa, CDC0110, read-out: Minimum inhibitory concentration, P. aeruginosa CDC-0110
N. gonorrhoeae FA1090 = experiment: Liquid broth MIC in Fastidious broth; conditions: Neisseria gonorrhoeae
Method: Additional antibacterial testing of the series was performed in 8 reference strains of N. gonorrhoeae (ATCC 49226, FA1090, MS 11, WHO G, WHO L, WHO M, WHO K, WHO X, WHO Z, WHO Q, CDC-0197). ATCC 49226, FA1090, MS11, WHO G, WHO L, and WHO M produce wild type or wild-type like PBP2. WHO K, WHO X, WHO Z, WHO Q, and CDC-0197 produce mosaic PBP2. Liquid broth-based assays were used for antibacterial testing of PBP inhibitors in Neisseria gonorrhoeae. Briefly, cryo-preserved bacterial cultures of clinical strains were streaked for isolation on Chocolate Agar (72 g/L (2×) GC Agar Base (BD #228950) and 2% (2×) Hemoglobin was autoclaved at 121° C. for 20 minutes to sterilize. Once cooled to ˜50° C. the 2×GC Agar Base and 2× Hemoglobin solutions are combined and 1% IsoVitaleX Enrichment (BD #211876) was added to the solution). Strains were incubated at 36° C. and 5% CO2 to allow growth of colonies, 24 hours before inoculum preparation. 2-fold serial dilutions of test compounds were conducted in a 96 well plate with a final volume of 75 μL per well at 2-fold the final desired concentration in Fastidious broth (Remel #R07664). For preparation of assay inoculum, a direct suspension was prepared by aseptically swabbing 10-15 colonies from agar plates into culture tubes containing 2 mL of fresh sterile saline. After the dilution plates were set up, direct suspensions were then diluted in a cuvette containing sterile saline and the optical density was measured at 600 nm. Inocula were diluted such that 75 μL of this culture in Fastidious broth results in a starting bacterial concentration of 5×10^5 CFU/mL when added to the dilution plates. The plates were incubated for ˜24 hours at 36° C. and 5% CO2.

N. gonorrhoeae MS11 = experiment: Liquid broth MIC in Fastidious broth; conditions: Neisseria gonorrhoeae
N. gonorrhoeae WHO L = experiment: Liquid broth MIC in Fastidious broth; conditions: Neisseria gonorrhoeae
N. gonorrhoeae WHO K = experiment: Liquid broth MIC in Fastidious broth; conditions: Neisseria gonorrhoeae
N. gonorrhoeae WHO Z = experiment: Liquid broth MIC in Fastidious broth; conditions: Neisseria gonorrhoeae
[4] = FA1090, read-out: Minimum Inhibitory Concentration, FA 1090
[5] = MS11, read-out: Minimum Inhibitory Concentration, MS11
[6] = read-out: Minimum Inhibitory Concentration, WHO L
[7] = read-out: Minimum Inhibitory Concentration, WHO K
[8] = read-out: Minimum Inhibitory Concentration, WHO Z
[9] = FA1090, read-out: Minimum Inhibitory Concentration (MIC), N. gonorrhoeae FA 1090
[10] = MS11, read-out: Minimum Inhibitory Concentration (MIC), N. gonorrhoeae MS11
[11] = read-out: Minimum Inhibitory Concentration (MIC), N. gonorrhoeae WHO L
[12] = read-out: Minimum Inhibitory Concentration (MIC), N. gonorrhoeae WHO K
[13] = read-out: Minimum Inhibitory Concentration (MIC), N. gonorrhoeae WHO Z

T1 sequence (P0AD68 1-577): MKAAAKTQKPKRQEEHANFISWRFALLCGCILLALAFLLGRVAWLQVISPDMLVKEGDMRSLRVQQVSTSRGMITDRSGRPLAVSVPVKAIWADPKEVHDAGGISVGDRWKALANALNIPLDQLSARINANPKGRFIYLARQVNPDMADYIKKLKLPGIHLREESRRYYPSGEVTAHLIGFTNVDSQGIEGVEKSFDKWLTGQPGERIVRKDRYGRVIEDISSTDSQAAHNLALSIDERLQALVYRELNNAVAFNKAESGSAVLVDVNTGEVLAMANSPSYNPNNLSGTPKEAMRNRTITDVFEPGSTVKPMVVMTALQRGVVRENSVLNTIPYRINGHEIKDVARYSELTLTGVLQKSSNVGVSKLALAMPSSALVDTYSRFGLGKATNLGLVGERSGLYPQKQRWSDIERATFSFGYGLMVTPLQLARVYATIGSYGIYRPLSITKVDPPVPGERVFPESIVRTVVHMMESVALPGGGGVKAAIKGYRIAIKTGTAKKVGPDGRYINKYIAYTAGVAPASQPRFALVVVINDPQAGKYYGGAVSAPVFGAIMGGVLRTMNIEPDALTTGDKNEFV
T2 sequence (G3XD46 whole entry): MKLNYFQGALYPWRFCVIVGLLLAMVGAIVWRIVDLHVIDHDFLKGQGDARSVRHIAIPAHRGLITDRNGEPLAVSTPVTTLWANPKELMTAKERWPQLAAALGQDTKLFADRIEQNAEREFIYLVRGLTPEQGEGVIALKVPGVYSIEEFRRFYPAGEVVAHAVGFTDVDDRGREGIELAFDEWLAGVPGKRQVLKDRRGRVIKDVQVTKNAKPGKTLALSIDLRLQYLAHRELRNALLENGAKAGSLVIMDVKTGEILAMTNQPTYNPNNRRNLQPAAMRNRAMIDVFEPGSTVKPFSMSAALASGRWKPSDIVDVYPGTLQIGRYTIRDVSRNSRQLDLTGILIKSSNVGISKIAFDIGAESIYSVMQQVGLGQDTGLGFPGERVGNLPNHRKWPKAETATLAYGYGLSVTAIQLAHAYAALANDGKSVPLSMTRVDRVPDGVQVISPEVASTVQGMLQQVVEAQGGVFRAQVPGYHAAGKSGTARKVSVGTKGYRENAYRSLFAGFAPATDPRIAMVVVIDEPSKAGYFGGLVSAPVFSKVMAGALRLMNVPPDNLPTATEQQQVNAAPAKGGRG

| SMILES | EC50 [1] | IC50 [2] | MIC (P. aeruginosa ATCC 27853) | MIC (A. baumannii ATCC 17978) | MIC (P. aeruginosa CDC-0054) | MIC (P. aeruginosa CDC-0095) | MIC (A. baumannii CDC-0033) | MIC (A. baumannii CDC-0036) | MIC [3] | MIC (P. aeruginosa CDC-0110) | MIC (N. gonorrhoeae FA1090; [4]) | MIC (N. gonorrhoeae MS11; [5]) | MIC (N. gonorrhoeae WHO L; [6]) | MIC (N. gonorrhoeae WHO K; [7]) | MIC (N. gonorrhoeae WHO Z; [8]) | MIC (N. gonorrhoeae FA1090; [9]) | MIC (N. gonorrhoeae MS11; [10]) | MIC (N. gonorrhoeae WHO L; [11]) | MIC (N. gonorrhoeae WHO K; [12]) | MIC (N. gonorrhoeae WHO Z; [13]) |
| --- | --- | --- | --- | --- | --- | --- | --- | --- | --- | --- | --- | --- | --- | --- | --- | --- | --- | --- | --- | --- |
| O=C(NCCS(=O)(=O)N1CCN(C(=O)NC(C(=O)N[C@H]2Cc3ccc(F)c(C(=O)O)c3OB2O)c2cc(F)c(O)c(O)c2Cl)C1=O)c1cccc(O)c1 (stereo partly drawn) [Example 261, (3R)-3-(2-(2-chloro-5-fluoro-3,4-dihydroxyphenyl)-2-(3-((2-(3-hydroxybenzamido)ethyl)sulfonyl)-2-oxoimidazolidine-1-carboxamido)acetamido)-7-fluoro-2-hydroxy-3,4-dihydro-2H-benzo[e][1,2]oxaborinine-8-carboxylic acid] | < 10 µM | < 10 µM | 2 to 4 µg/mL (≈ 2.56 to 5.12 µM) | < 1 µg/mL | 2 to 4 µg/mL (≈ 2.56 to 5.12 µM) | 2 to 4 µg/mL (≈ 2.56 to 5.12 µM) | 2 to 4 µg/mL (≈ 2.56 to 5.12 µM) | 2 to 4 µg/mL (≈ 2.56 to 5.12 µM) | 2 to 4 µg/mL (≈ 2.56 to 5.12 µM) | 2 to 4 µg/mL (≈ 2.56 to 5.12 µM) | 4 to 8 µg/mL (≈ 5.12 to 10.2 µM) | 16 to 32 µg/mL (≈ 20.5 to 40.9 µM) | > 64 µg/mL | > 64 µg/mL | 4 to 8 µg/mL (≈ 5.12 to 10.2 µM) | – | – | – | – | – |
| O=C(CN1CCN(C(=O)NC(C(=O)N[C@H]2Cc3ccc(F)c(C(=O)O)c3OB2O)c2cc(F)c(O)c(O)c2Cl)C(=O)C1=O)NCc1ccccc1 (stereo partly drawn) [Example 238] | < 10 µM | < 10 µM | 2 to 4 µg/mL (≈ 2.74 to 5.48 µM) | < 1 µg/mL | 2 to 4 µg/mL (≈ 2.74 to 5.48 µM) | 2 to 4 µg/mL (≈ 2.74 to 5.48 µM) | 8 to 16 µg/mL (≈ 11 to 21.9 µM) | 8 to 16 µg/mL (≈ 11 to 21.9 µM) | > 128 µg/mL | < 1 µg/mL | – | – | – | – | – | 1 to 2 µg/mL (≈ 1.37 to 2.74 µM) | 16 to 32 µg/mL (≈ 21.9 to 43.8 µM) | > 64 µg/mL | > 64 µg/mL | 16 to 32 µg/mL (≈ 21.9 to 43.8 µM) |
| O=C(NCCCN1CCN(C(=O)N[C@H](C(=O)N[C@H]2Cc3ccc(F)c(C(=O)O)c3OB2O)c2cc(F)c(O)c(O)c2Cl)C1=O)c1cccc(O)c1 [Example 254, (R)-3-((S)-2-(2-chloro-5-fluoro-3,4-dihydroxyphenyl)-2-(3-(3-(3-hydroxybenzamido)propyl)-2-oxoimidazolidine-1-carboxamido)acetamido)-7-fluoro-2-hydroxy-3,4-dihydro-2H-benzo[e][1,2]oxaborinine-8-carboxylic acid] | 50 to 250 µM | 50 to 250 µM | > 128 µg/mL | 2 to 4 µg/mL (≈ 2.73 to 5.47 µM) | > 128 µg/mL | > 128 µg/mL | 32 to 64 µg/mL (≈ 43.7 to 87.4 µM) | > 128 µg/mL | > 128 µg/mL | > 128 µg/mL | > 64 µg/mL | > 64 µg/mL | > 64 µg/mL | > 64 µg/mL | > 64 µg/mL | – | – | – | – | – |
| O=C(NCCCS(=O)(=O)N1CCN(C(=O)N[C@@H](C(=O)N[C@H]2Cc3ccc(F)c(C(=O)O)c3OB2O)c2cc(F)c(O)c(O)c2Cl)C1=O)c1cccc(O)c1 [Example 271, (R)-3-((R)-2-(2-chloro-5-fluoro-3,4-dihydroxyphenyl)-2-(3-((3-(3-hydroxybenzamido)propyl)sulfonyl)-2-oxoimidazolidine-1-carboxamido)acetamido)-7-fluoro-2-hydroxy-3,4-dihydro-2H-benzo[e][1,2]oxaborinine-8-carboxylic acid] | < 10 µM | < 10 µM | 2 to 4 µg/mL (≈ 2.51 to 5.03 µM) | < 1 µg/mL | 2 to 4 µg/mL (≈ 2.51 to 5.03 µM) | > 128 µg/mL | 2 to 4 µg/mL (≈ 2.51 to 5.03 µM) | 2 to 4 µg/mL (≈ 2.51 to 5.03 µM) | 2 to 4 µg/mL (≈ 2.51 to 5.03 µM) | 8 to 16 µg/mL (≈ 10.1 to 20.1 µM) | 1 to 2 µg/mL (≈ 1.26 to 2.51 µM) | 16 to 32 µg/mL (≈ 20.1 to 40.2 µM) | > 64 µg/mL | > 64 µg/mL | 4 to 8 µg/mL (≈ 5.03 to 10.1 µM) | – | – | – | – | – |
| CN(CCN1CCN(C(=O)N[C@@H](C(=O)N[C@H]2Cc3ccc(F)c(C(=O)O)c3OB2O)c2cc(F)c(O)c(O)c2Cl)C(=O)C1=O)Cc1cccnc1 [Example 201, (R)-3-((R)-2-(2-chloro-5-fluoro-3,4-dihydroxyphenyl)-2-(4-(2-(methyl(pyridin-3-ylmethyl)amino)ethyl)-2,3-dioxopiperazine-1-carboxamido)acetamido)-7-fluoro-2-hydroxy-3,4-dihydro-2H-benzo[e][1,2]oxaborinine-8-carboxylic acid] | < 10 µM | < 10 µM | < 1 µg/mL | < 1 µg/mL | < 1 µg/mL | < 1 µg/mL | 2 to 4 µg/mL (≈ 2.74 to 5.47 µM) | 2 to 4 µg/mL (≈ 2.74 to 5.47 µM) | < 1 µg/mL | < 1 µg/mL | – | – | – | – | – | 1 to 2 µg/mL (≈ 1.37 to 2.74 µM) | 16 to 32 µg/mL (≈ 21.9 to 43.8 µM) | > 64 µg/mL | 16 to 32 µg/mL (≈ 21.9 to 43.8 µM) | > 64 µg/mL |
| O=C(NCCCS(=O)(=O)N1CCN(C(=O)N[C@H](C(=O)N[C@H]2Cc3ccc(F)c(C(=O)O)c3OB2O)c2cc(F)c(O)c(O)c2Cl)C1=O)c1cccc(O)c1 [Example 270, (R)-3-((S)-2-(2-chloro-5-fluoro-3,4-dihydroxyphenyl)-2-(3-((3-(3-hydroxybenzamido)propyl)sulfonyl)-2-oxoimidazolidine-1-carboxamido)acetamido)-7-fluoro-2-hydroxy-3,4-dihydro-2H-benzo[e][1,2]oxaborinine-8-carboxylic acid] | 50 to 250 µM | < 10 µM | 32 to 64 µg/mL (≈ 40.2 to 80.4 µM) | < 1 µg/mL | > 128 µg/mL | > 128 µg/mL | 32 to 64 µg/mL (≈ 40.2 to 80.4 µM) | 32 to 64 µg/mL (≈ 40.2 to 80.4 µM) | > 128 µg/mL | > 128 µg/mL | 16 to 32 µg/mL (≈ 20.1 to 40.2 µM) | > 64 µg/mL | > 64 µg/mL | > 64 µg/mL | > 64 µg/mL | – | – | – | – | – |
| O=C(CN1CCN(C(=O)N[C@@H](C(=O)N[C@H]2Cc3ccc(F)c(C(=O)O)c3OB2O)c2cc(F)c(O)c(O)c2Cl)C(=O)C1=O)NCc1ccncc1 [Example 239, (R)-3-((R)-2-(2-chloro-5-fluoro-3,4-dihydroxyphenyl)-2-(2,3-dioxo-4-(2-oxo-2-((pyridin-4-ylmethyl)amino)ethyl)piperazine-1-carboxamido)acetamido)-7-fluoro-2-hydroxy-3,4-dihydro-2H-benzo[e][1,2]oxaborinine-8-carboxylic acid] | < 10 µM | < 10 µM | 2 to 4 µg/mL (≈ 2.74 to 5.47 µM) | < 1 µg/mL | 2 to 4 µg/mL (≈ 2.74 to 5.47 µM) | 2 to 4 µg/mL (≈ 2.74 to 5.47 µM) | 8 to 16 µg/mL (≈ 10.9 to 21.9 µM) | 2 to 4 µg/mL (≈ 2.74 to 5.47 µM) | 32 to 64 µg/mL (≈ 43.8 to 87.6 µM) | < 1 µg/mL | – | – | – | – | – | 1 to 2 µg/mL (≈ 1.37 to 2.74 µM) | 16 to 32 µg/mL (≈ 21.9 to 43.8 µM) | > 64 µg/mL | > 64 µg/mL | 16 to 32 µg/mL (≈ 21.9 to 43.8 µM) |
| O=C(CN1CCN(C(=O)NC(C(=O)N[C@H]2Cc3ccc(F)c(C(=O)O)c3OB2O)c2cc(F)c(O)c(O)c2Cl)C(=O)C1=O)Nc1ccc(O)cc1 (stereo partly drawn) [Example 230, (3R)-3-(2-(2-chloro-5-fluoro-3,4-dihydroxyphenyl)-2-(4-(2-((4-hydroxyphenyl)amino)-2-oxoethyl)-2,3-dioxopiperazine-1-carboxamido)acetamido)-7-fluoro-2-hydroxy-3,4-dihydro-2H-benzo[e][1,2]oxaborinine-8-carboxylic acid] | < 10 µM | < 10 µM | < 1 µg/mL | < 1 µg/mL | < 1 µg/mL | < 1 µg/mL | 2 to 4 µg/mL (≈ 2.73 to 5.47 µM) | 2 to 4 µg/mL (≈ 2.73 to 5.47 µM) | 2 to 4 µg/mL (≈ 2.73 to 5.47 µM) | < 1 µg/mL | – | – | – | – | – | 1 to 2 µg/mL (≈ 1.37 to 2.73 µM) | 4 to 8 µg/mL (≈ 5.47 to 10.9 µM) | 16 to 32 µg/mL (≈ 21.9 to 43.7 µM) | 16 to 32 µg/mL (≈ 21.9 to 43.7 µM) | 4 to 8 µg/mL (≈ 5.47 to 10.9 µM) |

From US20240270762A1, “PENICILLIN-BINDING PROTEIN INHIBITORS” (priority 2021, published 2024)
